Source: patent publication US7964624B1, “Inhibitors of serine proteases” (priority 2005, dated 2011)

These compounds were tested against T1, full-length hepatitis C viral protein NS3•4A (Hepatitis C virus genotype 1a, UniProt P27958) (assay: biochemical). Conditions: Enzyme Assay 2 (HCV NS3 Peptide Cleavage Assay) activity, apparent Ki class.
T1 construct: hexa-histidine (N); made in house; host or cells: Sf9 insect cells (baculovirus, pVL1392)
Set-up: species or system HCV sub-type strain 1a

SMILES	Ki
CCC[C@H](NC(=O)[C@@H]1C[C@]2(CC(c3cc(Cl)c(OC)cc3OC)=NO2)CN1C(=O)[C@@H](NC(=O)CC1CCCCCC1)C(C)(C)C)C(=O)C(=O)NC [Compound 655]	0.1 to 0.5 µM
CCC[C@H](NC(=O)[C@@H]1C[C@]2(CC(c3cc(C)cc(Cl)c3)=NO2)CN1C(=O)[C@@H](NC(=O)CC1CCCCC1)C(C)(C)C)C(=O)C(=O)NC1CC1 [Compound 396]	< 0.1 µM
CNC(=O)C(=O)[C@H](CC1CC1)NC(=O)[C@@H]1C[C@]2(CC(c3cc(Cl)c(OC)cc3OC)=NO2)CN1C(=O)[C@@H](NC(=O)CC1CCCCCC1)C(C)(C)C [Compound 616]	< 0.1 µM
CCC[C@H](NC(=O)[C@@H]1C[C@]2(CC(c3cccc(Cl)c3)=NO2)CN1C(=O)[C@@H](NC(=O)CC(C)(C)OC)C(C)(C)C)C(=O)C(=O)NC1CC1 [Compound 772]	< 0.1 µM
CCC[C@H](NC(=O)[C@@H]1C[C@]2(CC(c3ccc(F)c(Cl)c3)=NO2)CN1C(=O)[C@@H](NC(=O)CC1CCCCCC1)C(C)(C)C)C(=O)C(=O)NC [Compound 610]	< 0.1 µM
CCC[C@H](NC(=O)[C@@H]1C[C@]2(CC(c3cccc4cccnc34)=NO2)CN1C(=O)[C@@H](NC(=O)CC1CCCCC1)C(C)(C)C)C(=O)C(=O)NC [Compound 68]	< 0.1 µM
CCC[C@H](NC(=O)[C@@H]1C[C@]2(CC(c3cccc4cccnc34)=NO2)CN1C(=O)[C@@H](NC(=O)OC(C)(C)C)C(C)(C)C)C(=O)C(=O)NC1CC1 [Compound 619]	< 0.1 µM
CCC[C@H](NC(=O)[C@@H]1C[C@]2(CC(c3cc(Cl)c(OC)cc3OC)=NO2)CN1C(=O)[C@@H](NC(=O)CC(C)(C)C)C(C)(C)C)C(=O)C(=O)NC1CC1 [Compound 297]	< 0.1 µM
CCC[C@H](NC(=O)[C@@H]1C[C@]2(CC(c3cc(Cl)c4c(c3)OCCO4)=NO2)CN1C(=O)[C@@H](NC(=O)CC1CCCCC1)C(C)(C)C)C(=O)C(=O)NC [Compound 674]	< 0.1 µM
CNC(=O)C(=O)[C@H](CC1CC1)NC(=O)[C@@H]1C[C@]2(CC(c3cccc(Cl)c3)=NO2)CN1C(=O)[C@@H](NC(=O)CC1CC2CCC1C2)C(C)(C)C (some centres unmarked) [Compound 716]	< 0.1 µM
CCC[C@H](NC(=O)[C@@H]1C[C@]2(CC(c3cc(Cl)c(OC)cc3C)=NO2)CN1C(=O)[C@@H](NC(=O)CC(C)(C)C)C(C)(C)C)C(=O)C(=O)NC [Compound 607]	0.1 to 0.5 µM
CCC[C@H](NC(=O)[C@@H]1C[C@]2(CC(c3cc(Cl)c(OC)cc3OC)=NO2)CN1C(=O)[C@@H](NC(=O)CC1CCCCCC1)C(C)(C)C)C(=O)C(N)=O [Compound 656]	0.1 to 0.5 µM
CC(C)(C)[C@H](NC(=O)CC1CCCCC1)C(=O)N1C[C@@]2(CC(c3cccc4cccnc34)=NO2)C[C@H]1C(=O)N[C@@H](CC1CC1)C(=O)C(N)=O [Compound 603]	< 0.1 µM
CCC[C@H](NC(=O)[C@@H]1C[C@]2(CC(c3cc(C)c(OC)c(Cl)c3)=NO2)CN1C(=O)[C@@H](NC(=O)CC1CCCCC1)C(C)(C)C)C(=O)C(=O)NC [Compound 641]	< 0.1 µM
CNC(=O)C(=O)[C@H](CC1CC1)NC(=O)[C@@H]1C[C@]2(CC(c3cc(C)c(OC)c(Cl)c3)=NO2)CN1C(=O)[C@@H](NC(=O)CC1CCCCC1)C(C)(C)C [Compound 642]	< 0.1 µM
CCC[C@H](NC(=O)[C@@H]1C[C@]2(CC(c3cc(C)c(OCC)c(C)c3)=NO2)CN1C(=O)[C@@H](NC(=O)CC1CCCCC1)C(C)(C)C)C(=O)C(=O)NC1CC1 [Compound 513]	< 0.1 µM
CCC[C@H](NC(=O)[C@@H]1C[C@]2(CC(c3nccc4ccccc34)=NO2)CN1C(=O)[C@@H](NC(=O)OC1CCCC1)C(C)(C)C)C(=O)C(=O)NC1CC1 [Compound 661]	< 0.1 µM
CCC[C@H](NC(=O)[C@@H]1C[C@]2(CC(c3cc(Cl)c(OC)cc3OC)=NO2)CN1C(=O)[C@@H](NC(=O)CC1(C)CCOCC1)C(C)(C)C)C(=O)C(=O)NC1CC1 [Compound 286]	< 0.1 µM
CCC[C@H](NC(=O)[C@@H]1C[C@]2(CC(c3cc(C)c(OC)c(Cl)c3)=NO2)CN1C(=O)[C@@H](NC(=O)OC(C)(C)C)C(C)(C)C)C(=O)C(=O)NC [Compound 646]	< 0.1 µM
CCC[C@H](NC(=O)[C@@H]1C[C@]2(CC(c3cc(C)c(OC)c(C)c3)=NO2)CN1C(=O)[C@@H](NC(=O)CC1CCCCCC1)C(C)(C)C)C(=O)C(N)=O [Compound 728]	< 0.1 µM
COc1cc(OC)c(C2=NO[C@]3(C2)C[C@@H](C(=O)N[C@@H](CC2CC2)C(=O)C(N)=O)N(C(=O)[C@@H](NC(=O)CC2(C)CCOCC2)C(C)(C)C)C3)cc1Cl [Compound 529]	< 0.1 µM
CNC(=O)C(=O)[C@H](CC1CC1)NC(=O)[C@@H]1C[C@]2(CC(c3cccc(Cl)c3)=NO2)CN1C(=O)[C@@H](NC(=O)CC1CCCCC1)C(C)(C)C [Compound 522]	< 0.1 µM
CCC[C@H](NC(=O)[C@@H]1C[C@]2(CC(c3cc(Cl)ccc3OC)=NO2)CN1C(=O)[C@@H](NC(=O)CC1CCCCC1)C(C)(C)C)C(=O)C(N)=O [Compound 636]	< 0.1 µM
C[C@@H]1CC(CC(=O)N[C@H](C(=O)N2C[C@@]3(CC(c4cccc(Cl)c4)=NO3)C[C@H]2C(=O)N[C@@H](CC2CC2)C(=O)C(N)=O)C(C)(C)C)C[C@@H](C)O1 (some centres unmarked) [Compound 468]	< 0.1 µM
COc1ccc(Cl)cc1C1=NO[C@]2(C1)C[C@@H](C(=O)N[C@@H](CC1CC1)C(=O)C(N)=O)N(C(=O)[C@@H](NC(=O)CC1CCCCCC1)C(C)(C)C)C2 [Compound 635]	< 0.1 µM
CNC(=O)C(=O)[C@H](CC1CC1)NC(=O)[C@@H]1C[C@]2(CC(c3cccc(Cl)c3)=NO2)CN1C(=O)[C@@H](NC(=O)[C@H]1C[C@@H]1C(C)C)C(C)(C)C [Compound 755]	< 0.1 µM
CCC[C@H](NC(=O)[C@@H]1C[C@]2(CC(c3ccc(F)c(Cl)c3)=NO2)CN1C(=O)[C@@H](NC(=O)OC1CCCC1)C(C)(C)C)C(=O)C(=O)NC1CC1 [Compound 652]	< 0.1 µM
COc1c(C)cc(C2=NO[C@]3(C2)C[C@@H](C(=O)N[C@@H](CC2CC2)C(=O)C(=O)NC2CC2)N(C(=O)[C@@H](NC(=O)CC2CCCCC2)C(C)(C)C)C3)cc1C [Compound 764]	0.1 to 0.5 µM
CCC[C@H](NC(=O)[C@@H]1C[C@]2(CC(c3cc(Cl)cc4c3OCOC4)=NO2)CN1C(=O)[C@@H](NC(=O)CC1CCCCC1)C(C)(C)C)C(=O)C(=O)NC1CC1 [Compound 676]	< 0.1 µM
CNC(=O)C(=O)[C@H](CC1CCC1)NC(=O)[C@@H]1C[C@]2(CC(c3cccc(Cl)c3)=NO2)CN1C(=O)[C@@H](NC(=O)CC1CCCCC1)C(C)(C)C [Compound 741]	< 0.1 µM

Same assay, conditions: Enzyme Assay 2, HCV NS3 Peptide Cleavage Assay, apparent Ki

SMILES	Ki
CC(C)(C)[C@H](NC(=O)[C@H]1C[C@@H]1c1ccccc1)C(=O)N1C[C@@]2(CC(c3cccc4cccnc34)=NO2)C[C@H]1C(=O)N[C@@H](CC1CC1)C(=O)C(N)=O [Compound 805]	< 0.1 µM
CCC[C@H](NC(=O)[C@@H]1C[C@]2(CC(c3cc(C)c(OCC)c(C)c3)=NO2)CN1C(=O)[C@@H](NC(=O)C1C[C@H]1C(C)C)C(C)(C)C)C(=O)C(=O)NC (some centres unmarked) [Compound 992]	< 0.1 µM
CCC[C@H](NC(=O)[C@@H]1C[C@]2(CC(N3CCc4ccccc4C3)=NO2)CN1C(=O)[C@@H](NC(=O)OC1CCCC1)C(C)(C)C)C(=O)C(=O)NC1CC1 [Compound 962]	0.1 to 0.5 µM
CCC[C@H](NC(=O)[C@@H]1C[C@]2(CC(c3cc(Cl)c(C)cc3OC)=NO2)CN1C(=O)[C@@H](NC(=O)CC1CCCCC1)C(C)(C)C)C(=O)C(=O)NC1CC1 [Compound 820]	< 0.1 µM
CCOc1cc(OC)c(C2=NO[C@]3(C2)C[C@@H](C(=O)N[C@@H](CC2CC2)C(=O)C(N)=O)N(C(=O)[C@@H](NC(=O)CC2CCCCC2)C(C)(C)C)C3)cc1Cl [Compound 972]	< 0.1 µM
CCOc1c(C)cc(C2=NO[C@]3(C2)C[C@@H](C(=O)N[C@@H](CC2CC2)C(=O)C(N)=O)N(C(=O)[C@@H](NC(=O)OC(C)(C)C)C(C)(C)C)C3)cc1C [Compound 974]	< 0.1 µM
CNC(=O)C(=O)[C@H](CC1CC1)NC(=O)[C@@H]1C[C@]2(CC(c3cccc(Cl)c3)=NO2)CN1C(=O)[C@@H](NC(=O)OC1CCC1)C(C)(C)C [Compound 851]	< 0.1 µM
CCC[C@H](NC(=O)[C@@H]1C[C@]2(CC(c3cccc(Cl)c3)=NO2)CN1C(=O)[C@@H](NC(=O)[C@H]1C[C@@H]1C1CCCCC1)C(C)(C)C)C(=O)C(=O)NC1CC1 [Compound 920]	0.1 to 0.5 µM
CCC[C@H](NC(=O)[C@@H]1C[C@]2(CC(c3cccc(Cl)c3)=NO2)CN1C(=O)[C@@H](NC(=O)[C@H]1CC1c1ccccc1)C(C)(C)OC)C(=O)C(=O)NC1CC1 (some centres unmarked) [Compound 960]	< 0.1 µM
CNC(=O)C(=O)[C@H](CC1CC1)NC(=O)[C@@H]1C[C@]2(CC(c3cccc(Cl)c3)=NO2)CN1C(=O)[C@@H](NC(=O)[C@H]1C[C@H]1c1ccccc1)C(C)(C)C [Compound 887]	0.1 to 0.5 µM
CCC[C@H](NC(=O)[C@@H]1C[C@]2(CC(c3cccc(Cl)c3)=NO2)CN1C(=O)[C@@H](NC(=O)[C@@H]1C[C@H]1C1CCCC1)C(C)(C)C)C(=O)C(=O)NC1CC1 [Compound 954]	< 0.1 µM
CNC(=O)C(=O)[C@H](CC1CC1)NC(=O)[C@@H]1C[C@]2(CC(c3cccc(Cl)c3)=NO2)CN1C(=O)[C@@H](NC(=O)C1CC1c1ccn(C)n1)C(C)(C)C (some centres unmarked) [Compound 955]	< 0.1 µM
CCC[C@H](NC(=O)[C@@H]1C[C@]2(CC(c3cc(C)c(OCC)c(C)c3)=NO2)CN1C(=O)[C@@H](NC(=O)[C@@H]1C[C@H]1c1ccc(F)cc1)C(C)(C)C)C(=O)C(=O)NC1CC1 [Compound 994]	< 0.1 µM
CCC[C@H](NC(=O)[C@@H]1C[C@]2(CC(c3cc(C)c(OCC)c(C)c3)=NO2)CN1C(=O)[C@@H](NC(=O)[C@@H]1C[C@H]1c1ccc(F)cc1)C(C)(C)C)C(=O)C(=O)NC [Compound 995]	< 0.1 µM
CCC[C@H](NC(=O)C1C[C@]2(CC(c3cc(C)c(OC)c(C)c3)=NO2)CN1C(=O)[C@@H](NC(=O)[C@@H]1C[C@H]1c1c[nH]cn1)C(C)(C)C)C(=O)C(=O)NC1CC1 (some centres unmarked) [Compound 907]	0.1 to 0.5 µM
CNC(=O)C(=O)[C@H](CC1CC1)NC(=O)[C@@H]1C[C@]2(CC(c3cccc(Cl)c3)=NO2)CN1C(=O)[C@@H](NC(=O)Cc1cccnc1)C(C)(C)C [Compound 958]	< 0.1 µM
CCNC(=O)C(=O)[C@H](CC1CC1)NC(=O)[C@@H]1C[C@]2(CC(c3cc(Cl)ccc3OC)=NO2)CN1C(=O)[C@@H](NC(=O)[C@@H]1C[C@H]1c1ccccc1)C(C)(C)C [Compound 970]	< 0.1 µM
